Read-outs that look alike come from different tables or passages of the source.
How the values were obtained:
[1] = tested on: Key Broadleaf Weed and Crop Species; assay: Post-emergent Test II herbicidal activity (Table 5); format: in vivo; conditions: post-emergence, 336 h, 14 days after application; for pest or weed control at 70 g/ha: application rate 70 g ai/ha; for pest or weed control at 140 g/ha: application rate 140 g ai/ha
How it was run: (§1)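 Plants grown in Metro-Mix 360 (pH 6.0–6.8) in a greenhouse (~15 h photoperiod, 23–29 °C day) to first or second true leaf stage, then sprayed with compound in acetone/DMSO/aqueous crop-oil-surfactant carrier at 187 L/ha by track sprayer. Injury visually scored 0–100% versus untreated plants after 14 d.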

[2] = tested on: Key Grass and Sedge Weeds as well as Grass Crops; assay: Post-emergent Test II herbicidal activity (Table 6); format: in vivo; conditions: post-emergence, 336 h; for pest or weed control at 70 g/ha: 70 g ai/ha; for pest or weed control at 140 g/ha: 140 g ai/ha
How it was run: as §1

[3] = ABUTH: velvetleaf (Abutilon theophrasti), read-out: Visual Growth Reduction (%) 14 Days After Application, ABUTH
[4] = AMARE: redroot pigweed (Amaranthus retroflexus), read-out: Visual Growth Reduction (%) 14 Days After Application, AMARE
[5] = BRSNN: oilseed-rape, canola (Brassica napus), read-out: Visual Growth Reduction (%) 14 Days After Application, BRSNN
[6] = CHEAL: lambsquarters (Chenopodium album), read-out: Visual Growth Reduction (%) 14 Days After Application, CHEAL
[7] = EPHHL: wild poinsettia (Euphorbia heterophylla), read-out: Visual Growth Reduction (%) 14 Days After Application, EPHHL
[8] = HELAN: sunflower (Helianthus annuus), read-out: Visual Growth Reduction (%) 14 Days After Application, HELAN
[9] = VIOTR: wild pansy (Viola tricolor), read-out: Visual Growth Reduction (%) 14 Days After Application, VIOTR
[10] = CYPES: yellow nutsedge (Cyperus esculentus), read-out: Visual Growth Reduction (%) 14 Days After Application, CYPES
[11] = DIGSA: crabgrass (Digitaria sanguinalis), read-out: Visual Growth Reduction (%) 14 Days After Application, DIGSA
[12] = ECHCG: barnyardgrass (Echinochloa crus-galli), read-out: Visual Growth Reduction (%) 14 Days After Application, ECHCG
[13] = ORYSA: rice (Oryza sativa), crop, read-out: Visual Growth Reduction (%) 14 Days After Application, ORYSA
[14] = SETFA: giant foxtail (Setaria faberi), read-out: Visual Growth Reduction (%) 14 Days After Application, SETFA
[15] = SORVU: grain sorghum (Sorghum vulgare), read-out: Visual Growth Reduction (%) 14 Days After Application, SORVU
[16] = TRZSS (wheat, Triticum aestivum), crop, read-out: Visual Growth Reduction (%) 14 Days After Application, TRZSS
[17] = ZEAMX: maize, corn (Zea mays), crop, read-out: Visual Growth Reduction (%) 14 Days After Application, ZEAMX

COC(=O)c1nc(-c2ccc(C(F)F)cc2)c(F)c(N)c1Cl [Compound 209]
85 to 94%: pest or weed control at 70 g/ha [1, 5] | pest or weed control at 140 g/ha [1, 5] | pest or weed control at 70 g/ha [2, 10] | pest or weed control at 140 g/ha [2, 10] | pest or weed control at 140 g/ha [2, 17]
60 to 74%: pest or weed control at 140 g/ha [2, 11]
0 to 29%: pest or weed control at 70 g/ha [1, 9] | pest or weed control at 140 g/ha [1, 9] | pest or weed control at 70 g/ha [2, 13] | pest or weed control at 140 g/ha [2, 13] | pest or weed control at 70 g/ha [2, 16] | pest or weed control at 140 g/ha [2, 16]
95 to 100%: pest or weed control at 70 g/ha [1, 3] | pest or weed control at 140 g/ha [1, 3] | pest or weed control at 70 g/ha [1, 4] | pest or weed control at 140 g/ha [1, 4] | pest or weed control at 70 g/ha [1, 6] | pest or weed control at 140 g/ha [1, 6] | pest or weed control at 70 g/ha [1, 7] | pest or weed control at 140 g/ha [1, 7] | pest or weed control at 70 g/ha [1, 8] | pest or weed control at 140 g/ha [1, 8] | pest or weed control at 70 g/ha [2, 12] | pest or weed control at 140 g/ha [2, 12] | pest or weed control at 70 g/ha [2, 15] | pest or weed control at 140 g/ha [2, 15]
45 to 59%: pest or weed control at 70 g/ha [2, 11] | pest or weed control at 70 g/ha [2, 14]
75 to 84%: pest or weed control at 140 g/ha [2, 14] | pest or weed control at 70 g/ha [2, 17]

C=Cc1c(C(=O)OC)nc(-c2ccc(Cl)c(F)c2)c(F)c1N [Compound 215, methyl 4-amino-6-(4-chloro-3-fluorophenyl)-5-fluoro-3-vinylpicolinate]
60 to 74%: pest or weed control at 140 g/ha [2, 15]
0 to 29%: pest or weed control at 70 g/ha [1, 9] | pest or weed control at 70 g/ha [2, 11] | pest or weed control at 140 g/ha [2, 11] | pest or weed control at 70 g/ha [2, 12] | pest or weed control at 70 g/ha [2, 13] | pest or weed control at 140 g/ha [2, 13] | pest or weed control at 70 g/ha [2, 14] | pest or weed control at 140 g/ha [2, 14] | pest or weed control at 70 g/ha [2, 16] | pest or weed control at 140 g/ha [2, 16]
95 to 100%: pest or weed control at 70 g/ha [1, 3] | pest or weed control at 140 g/ha [1, 3] | pest or weed control at 70 g/ha [1, 4] | pest or weed control at 140 g/ha [1, 4] | pest or weed control at 70 g/ha [1, 5] | pest or weed control at 140 g/ha [1, 5] | pest or weed control at 70 g/ha [1, 6] | pest or weed control at 140 g/ha [1, 6] | pest or weed control at 70 g/ha [1, 7] | pest or weed control at 140 g/ha [1, 7] | pest or weed control at 70 g/ha [1, 8] | pest or weed control at 140 g/ha [1, 8] | pest or weed control at 70 g/ha [2, 10] | pest or weed control at 140 g/ha [2, 10] | pest or weed control at 140 g/ha [2, 12]
45 to 59%: pest or weed control at 70 g/ha [2, 15] | pest or weed control at 140 g/ha [2, 17]
30 to 44%: pest or weed control at 70 g/ha [2, 17]

From patent publication US9113629B2, “4-amino-6-(4-substituted-phenyl)-picolinates and 6-amino-2-(4-substituted-phenyl)-pyrimidine-4-carboxylates and their use as herbicides” (DOW AGROSCIENCES LLC, priority 2013, dated 2015)
